Measurements taken from patent US9758527B2, “Cyclohexene derivative, preparation method therefor, and pharmaceutical composition for preventing or treating metabolic diseases, containing same as active ingredient” (HYUNDAI PHARM CO., LTD., priority 2014, dated 2017).
Where a name gives a salt, the structure may show the parent alone. Read-outs that look alike come from different tables or passages of the source.

What was measured:
[1] = system: blood glucose level; test: Oral glucose tolerance test (OGTT) in high-fat diet model; format: in vivo; settings: hypoglycemic level, 20 mg/kg oral, glucose 2 g/kg oral after 30 minutes; for inhibition in vivo at 20 mg/kg: Mus musculus, 2 h, read-out: % AUC
Procedure: To evaluate in vivo effective effects of the cyclohexene derivatives according to the present invention, experiments were carried out, as follows.
Specifically, male C57BL/6J (C57 black 6) […] (8 to 10 weeks old) in a high-fat diet model were acclimated for at least 7 days, and only healthy rat populations were selected and subjected to an oral glucose tolerance test (OGTT). The rats were fasted for 12 to 15 hours, and then randomly divided into groups with five rats per group. Thereafter, each of the compounds of Examples 1, 14, 48, 69, 80, 118, 139, 147, 148, 169, 190, 199, 200, 204, 227, and Comparative Examples 1 and 2 according to the present invention was administered to the rats at a dose of 20 mg/kg. In this case, a vehicle (0.5%, carboxymethyl cellulose (CMC)) was administered as an untreated group, and the dose of the compound administered together with the vehicle was orally administered at 10 ml/kg. After 30 minutes of administration, glucose (2 g/kg) was orally administered at a dose of 10 ml/kg. A blood glucose level was measured using an Accu-Chek Active Strip (Rosche Diagnostic Co.). In this case, the glucose level in blood collected via caudal venipuncture was measured at time points of −30, 0, 20, 40, 60, and 120 minutes after glucose administration.
In Table 3, the unit “% AUC (area under the curve)” represents a hypoglycemic level.

[2] = molecular target: T1, G protein-coupled receptor 119 (GPR-119) (Mesocricetus auratus, UniProt A0A1U8CD06); test: Evaluation of cAMP activity in HIT-T15 cells (HTRF cAMP dynamic kit); format: cell-based, hamster; settings: cAMP activation
T1 construct: hamster-derived β-cells containing G protein-coupled receptor 119 (GPR-119), HIT-T15 cells; host or cells: HIT-T15 (hamster pancreatic β-cells)
T1 sequence (A0A1U8CD06 1-334): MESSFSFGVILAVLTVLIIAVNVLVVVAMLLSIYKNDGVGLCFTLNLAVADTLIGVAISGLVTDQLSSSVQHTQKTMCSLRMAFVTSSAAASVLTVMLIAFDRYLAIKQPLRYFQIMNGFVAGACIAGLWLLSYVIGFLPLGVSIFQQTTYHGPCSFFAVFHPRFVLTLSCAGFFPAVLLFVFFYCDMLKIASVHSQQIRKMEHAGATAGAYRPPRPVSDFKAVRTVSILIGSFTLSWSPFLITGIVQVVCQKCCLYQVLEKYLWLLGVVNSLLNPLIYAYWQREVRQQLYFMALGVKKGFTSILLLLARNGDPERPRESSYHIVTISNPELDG
In short: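 HIT-T15 cells, 60,000/well, treated next day with compound at six concentrations ([…]) for 1 h at 37° C. Lysate cAMP quantified by HTRF competitive immunoassay (D2-cAMP, cryptate anti-cAMP); activity taken as change in FRET signal relative to DMSO.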

[3] = 1 h at 37° C., six concentrations, read-out: EC50

SMILES	EC50 ([2]; EC50 (nM), 1 h at 37° C., six concentrations) [nM]	EC50 [2, 3] [nM]	EC50 ([2]; read-out: EC50 value) [nM]	inhibition in vivo at 20 mg/kg [1] [%]	% AUC [1] [% AUC]
CC(C)c1noc(C2CCN(c3ncnc(Nc4ccc(S(C)(=O)=O)cc4F)c3[N+](=O)[O-])CC2)n1 [Comparative Example 1, N-(2-fluoro-4-methylsulfonylphenyl)-5-nitro-6-[4-(3-propan-2-yl-1,2,4-oxadiazol-5-yl)piperidin-1-yl]pyrimidine-4-amine, reference compound]				13.5	
CC(C)c1noc(N2CCC(COc3ccc(-c4ccc(S(C)(=O)=O)cc4)nc3)CC2)n1 [Comparative Example 2, 2-(4-methanesulfonylphenyl)-5-({1-[3-(propan-2-yl)-1,2,4-oxadiazol-5-yl]piperidin-4-yl}methoxy)pyridine, reference compound]	49			15.3	
CC(C)c1noc(N2CCC(COc3ccc(C4=CCC(C(=O)NCC(=O)N5CCC[C@H]5C#N)CC4)cc3F)CC2)n1 (stereo partly drawn) [Example 139, N-(2-((S)-2-cyanopyrrolidin-1-yl)-2-oxoethyl)-4-(3-fluoro-4-((1-(3-isopropyl-1,2,4-oxadiazol-5-yl)piperidin-4-yl)methoxy)phenyl)cyclohex-3-enecarboxamide]		130		25.4	
CC(C)c1noc(N2CCC(COc3ccc(C4=CCC(C(=O)N5CCC[C@@H]5CO)CC4)cc3)CC2)n1 (stereo partly drawn) [Example 147, ((R)-2-(hydroxymethyl)pyrrolidin-1-yl)(4-(4-((1-(3-isopropyl-1,2,4-oxadiazol-5-yl)piperidin-4-yl)methoxy)phenyl)cyclohex-3-enyl)methanone]		6.9	≤ 50	23.3	
CC(C)c1noc(N2CCC(COc3ccc(C4=CCC(C(=O)N5CCC[C@H]5CO)CC4)cc3)CC2)n1 (stereo partly drawn) [Example 148, ((S)-2-(hydroxymethyl)pyrrolidin-1-yl)(4-(4-((1-(3-isopropyl-1,2,4-oxadiazol-5-yl)piperidin-4-yl)methoxy)phenyl)cyclohex-3-enyl)methanone]		13	≤ 50	22.6	
CCc1cnc(N2CCC(COc3ccc(C4=CCC(C(=O)N5CCC(CO)CC5)CC4)cc3)CC2)nc1 (stereo not shown) [Example 169, (4-(4-((1-(5-ethylpyrimidin-2-yl)piperidin-4-yl)methoxy)phenyl)cyclohex-3-enyl)(4-(hydroxymethyl)piperidin-1-yl)methanone hydrochloride]		9		21.7	
CC(C)(C)OC(=O)N1CCC(COc2ccc(C3=CCC(C(=O)NCCO)CC3)cc2)CC1 (stereo not shown) [Example 190, tert-butyl 4-((4-(4-(2-hydroxyethylcarbamoyl)cyclohex-1-enyl)phenoxy)methyl)piperidine-1-carboxylate]					20.9
CCN(CCO)C(=O)C1CC=C(c2ccc(OCC3CCN(C(=O)OC(C)(C)C)CC3)cc2)CC1 (stereo not shown) [Example 199, tert-butyl 4-((4-(4-(ethyl(2-hydroxyethyl)carbamoyl)cyclohex-1-enyl)phenoxy)methyl)piperidine-1-carboxylate]		8	≤ 50	20.9	
CCc1cnc(N2CCC(COc3ccc(C4=CCC(C(=O)N5CCC(=NO)CC5)CC4)cc3)CC2)nc1 (stereo not shown) [Example 277, (4-(4-((1-(5-ethylpyrimidin-2-yl)piperidin-4-yl)methoxy)phenyl)cyclohex-3-enyl)(4-(hydroxyimino)piperidin-1-yl)methanone]		20			19.8
CON=C1CCN(C(=O)C2CC=C(c3ccc(OCC4CCN(c5nc(C(C)C)no5)CC4)cc3)CC2)CC1 (stereo not shown) [Example 278, (4-(4-((1-(3-isopropyl-1,2,4-oxadiazol-5-yl)piperidin-4-yl)methoxy)phenyl)cyclohex-3-enyl)(4-(methoxyimino)piperidin-1-yl)methanone]		18	≤ 50		
CON=C1CN(C(=O)C2CC=C(c3ccc(OCC4CCN(c5nc(C(C)C)no5)CC4)cc3)CC2)C1 (stereo not shown) [Example 286, (4-(4-((1-(3-isopropyl-1,2,4-oxadiazol-5-yl)piperidin-4-yl)methoxy)phenyl)cyclohex-3-enyl)(3-(methoxyimino)azetidin-1-yl)methanone]		37	≤ 50		
CC(C)c1noc(N2CCC(COc3ccc(C4=CCC(C(=O)N5CC(O)C5)CC4)cc3)CC2)n1 (stereo not shown) [Example 289, (3-hydroxyazetidin-1-yl)(4-(4-((1-(3-isopropyl-1,2,4-oxadiazol-5-yl)piperidin-4-yl)methoxy)phenyl)cyclohex-3-enyl)methanone]		32	≤ 50		

Continued by falling EC50 [2, 3], values first:

EC50 ([2]; EC50 (nM), 1 h at 37° C., six concentrations) [nM]	EC50 [2, 3] [nM]	EC50 ([2]; read-out: EC50 value) [nM]	SMILES	inhibition in vivo at 20 mg/kg [1] [%]	% AUC [1] [% AUC]
	650		CC(C)(C)OC(=O)N1CCC(COc2ccc(C3=CCC(C(=O)NC(CO)CO)CC3)nc2)CC1 (stereo not shown) [Example 14, tert-butyl 4-((6-(4-(1,3-dihydroxypropan-2-ylcarbamoyl)cyclohex-1-enyl)pyridin-3-yloxy)methyl)piperidine-1-carboxylate]	21.9	
	89		CC(C)c1noc(N2CCC(COc3ccc(C4=CCC(C(=O)NC(CO)CO)CC4)cc3F)CC2)n1 (stereo not shown) [Example 80, N-(1,3-dihydroxypropan-2-yl)-4-(3-fluoro-4-((1-(3-isopropyl-1,2,4-oxadiazol-5-yl)piperidin-4-yl)methoxy)phenyl)cyclohex-3-enecarboxamide]	19.7	
	65		C[C@H](CO)NC(=O)C1CC=C(c2ccc(OCC3CCN(C(=O)OC(C)(C)C)CC3)cc2)CC1 (stereo partly drawn) [Example 1, tert-butyl 4-((4-(4-((R)-1-hydroxypropan-2-ylcarbamoyl)cyclohex-1-enyl)phenoxy)methyl)piperidine-1-carboxylate]	28.5	
	31	≤ 50	CCc1cnc(N2CCC(COc3ccc(C4=CCC(C(=O)N5CCC[C@@H]5CO)CC4)cc3)CC2)nc1 (stereo partly drawn) [Example 118, (4-(4-((1-(5-ethylpyrimidin-2-yl)piperidin-4-yl)methoxy)phenyl)cyclohex-3-enyl)((R)-2-(hydroxymethyl)pyrrolidin-1-yl)methanone]	23.5	
	23	≤ 50	CC(C)(C)OC(=O)N1CCC(COc2ccc(C3=CCC(C(=O)N4CCC(CCO)CC4)CC3)cc2)CC1 (stereo not shown) [Example 200, tert-butyl 4-((4-(4-(4-(2-hydroxyethyl)piperidine-1-carbonyl)cyclohex-1-enyl)phenoxy)methyl)piperidine-1-carboxylate]	24	
	9	≤ 50	CC(C)(C)OC(=O)N1CCC(COc2ccc(C3=CCC(C(=O)N4CCCCC4)CC3)cc2)CC1 (stereo not shown) [Example 204, tert-butyl 4-((4-(4-(piperidine-1-carbonyl)cyclohex-1-enyl)phenoxy)methyl)piperidine-1-carboxylate]	24	
	7	≤ 50	CC(C)(C)OC(=O)N1CCC(COc2ccc(C3=CCC(C(=O)N4CCOCC4)CC3)cc2F)CC1 (stereo not shown) [Example 69, tert-butyl 4-((2-fluoro-4-(4-(morpholine-4-carbonyl)cyclohex-1-enyl)phenoxy)methyl)piperidine-1-carboxylate]	19.1	
	6	≤ 50	CCc1cnc(N2CCC(COc3ccc(C4=CCC(C(=O)N5CCC(C#N)CC5)CC4)cc3)CC2)nc1 (stereo not shown) [Example 227, 1-(4-(4-((1-(5-ethylpyrimidin-2-yl)piperidin-4-yl)methoxy)phenyl)cyclohex-3-enecarbonyl)piperidine-4-carbonitrile]	26.8	
